# Read-outs that look alike come from different tables or passages of the source.
# Key:
# human NK1R = molecular target: T1, human NK1R (Homo sapiens, UniProt P25103); test: Binding assay of human NK1R expressed in COS or CHO cells, displacement of 125I-substance P (Table 1, hNK1)
# T1 construct: expressed in transfected cells
# Description: (§1) A. Receptor Expression in COS
# (§2) To express the cloned human neurokinin-1 receptor (NK 1R) transiently in COS, the cDNA for the human NK 1R was cloned into the expression vector pCDM9 which was derived from pCDM 8 (INVITROGEN) by inserting the ampicillin resistance gene (nucleotide 1973 to 2964 from BLUESCRIPT SK+) into the Sac II site. Transfection of 20 μg of the plasmid DNA into 10 million COS cells was achieved by electroporation in 800 μl of transfection buffer (135 mM NaCl, 1.2 mM CaCl2, 1.2 mM MgCl2, 2.4 mM K2 HPO4, 0.6 mM KH2 PO4, 10 mM glucose, 10 mM HEPES pH 7.4) at 260 V and 950 uF using the IBI GENEZAPPER (IBI, New Haven, Conn.). The cells were incubated in 10% fetal calf serum, 2 mM glutamine, 100 U/ml penicillin-streptomycin, and 90% DMEM media (GIBCO, Grand Island, N.Y.) in 5% CO2 at 37° C. for three days before the binding assay. Similar methods were used to express the NK2 receptor.
# (§3) B. Stable Expression in CHO
# (§4) To establish a stable cell line expressing the cloned human NK1R, the cDNA was subcloned into the vector pRcCMV (INVITROGEN). Transfection of 20 μg of the plasmid DNA into CHO cells was achieved by electroporation in 800 μl of transfection buffer suplemented with 0.625 mg/ml Herring sperm DNA at 300 V and 950 uF using the IBI GENEZAPPER (IBI). The transfected cells were incubated in CHO media (10% fetal calf serum, 100 U/ml pennicilin-streptomycin, 2 mM glutamine, 1/500 hypoxanthine-thymidine(ATCC), 90% IMDM media (JRH BIOSCIENCES, Lenexa, Kans.), 0.7 mg/ml G418 (GIBCO)) in 5% CO2 at 37° C. until colonies were visible. Each colony was separated and propagated. The cell clone with the highest number of human NK1R was selected for subsequent applications such as drug screening. Similar methods were used to express the human NK2 receptor.
# (§5) C. Assay Protocol using COS or CHO The binding assay of human NK1R expressed in either COS or CHO cells is based on the use of ^125 I-substance P (^125 I-SP, from DU PONT, Boston, Mass.) as a radioactively labeled ligand which competes with unlabeled substance P or any other ligand for binding to the human NK1R. […] In the binding assay, 500 μl of cells were added to a tube containing 20 μl of 1.5 to 0.25 nM of ^125 I-SP and 5 μl of unlabeled substance P or any other test compound in DMSO. The tubes were incubated at 4° C. or at room temperature for 1 hour with gentle shaking. The bound radioactivity was separated from unbound radioactivity by GF/C filter (BRANDEL, Gaithersburg, Md.) which was pre-wetted with 0.1% polyethylenimine. The filter was washed with 3 ml of wash buffer (50 mM Tris pH 7.5, 5 mM MnCl2, 150 mM NaCl) three times and its radioactivity was determined by gamma counter. A similar assay was used for NK2 except ^125 I-NKA was used as the ligand.
# human NK2 receptor = molecular target: T2, human NK2 receptor (Homo sapiens, UniProt P21452); test: Binding assay of NK2 receptor expressed in COS or CHO cells, displacement of 125I-NKA (Table 1, hNK2)
# T2 construct: expressed in transfected cells
# T2 sequence (P21452 1-398): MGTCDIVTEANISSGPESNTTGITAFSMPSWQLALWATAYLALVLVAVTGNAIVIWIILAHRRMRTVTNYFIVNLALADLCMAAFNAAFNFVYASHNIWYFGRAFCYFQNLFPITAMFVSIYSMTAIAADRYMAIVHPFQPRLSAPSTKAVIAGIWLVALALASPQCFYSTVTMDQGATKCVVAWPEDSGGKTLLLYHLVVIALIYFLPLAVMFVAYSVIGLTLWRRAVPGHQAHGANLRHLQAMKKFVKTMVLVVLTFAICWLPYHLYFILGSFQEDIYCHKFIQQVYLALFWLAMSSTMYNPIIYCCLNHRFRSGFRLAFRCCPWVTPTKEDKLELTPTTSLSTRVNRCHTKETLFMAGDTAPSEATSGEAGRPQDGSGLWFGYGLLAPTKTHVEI
# Description: as §1, §2, §3, §4, §5
# [1] = human NK1 receptor, 125I-substance P ligand, read-out: hNK1 (IC50 nM)
# [2] = human NK2 receptor, 125I-NKA ligand, read-out: hNK2 (IC50 nM)
# T1 sequence (P25103 whole entry): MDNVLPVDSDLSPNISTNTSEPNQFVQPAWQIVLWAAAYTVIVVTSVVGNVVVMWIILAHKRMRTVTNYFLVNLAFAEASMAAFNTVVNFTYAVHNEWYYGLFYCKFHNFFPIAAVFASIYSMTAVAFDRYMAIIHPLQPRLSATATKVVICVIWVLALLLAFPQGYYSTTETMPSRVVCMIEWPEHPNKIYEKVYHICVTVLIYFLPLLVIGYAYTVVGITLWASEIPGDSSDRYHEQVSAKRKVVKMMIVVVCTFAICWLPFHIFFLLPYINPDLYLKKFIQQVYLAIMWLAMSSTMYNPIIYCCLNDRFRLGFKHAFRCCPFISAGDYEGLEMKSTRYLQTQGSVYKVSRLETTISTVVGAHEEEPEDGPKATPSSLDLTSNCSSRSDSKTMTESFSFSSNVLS
Compound,IC50 (human NK1R; [1]) [nM],IC50 (human NK2 receptor; [2]) [nM],IC50 (human NK1R) [nM],IC50 (human NK2 receptor) [nM]
"CN(Cc1ccccc1)C(=O)[C@H](Cc1c[nH]c2ccccc12)NC(=O)N1CCC(Cc2ccccc2)CC1 [Example 8, N-Benzyl-N-methyl-2-(S)-((4-benzylpiperidino)-carbonyl-amino)-3-(3-indolyl)propionamide]",90,25,–,–
"N-(1(R)-Phenylpropyl)-N-methyl-2(S)-((spiroindane-1,4'-piperidino)-carbonyl-amino)-3-(3-indolyl)propionamide [Example 24]",1000,50,–,–
CN(Cc1ccccc1)C(=O)[C@H](Cc1c[nH]c2ccccc12)NC(=O)N1CCC(N2C(=O)NCc3ccccc32)CC1 [Example 11],–,–,100,60
"COc1ccccc1N1CCN(C(=O)N[C@@H](Cc2c[nH]c3ccccc23)C(=O)N(C)Cc2ccccc2)CC1 [Example 12, N-Benzyl-N-methyl-2-(S)-((4-(2-methoxyphenyl)piperazino)-carbonyl-amino)-3-(3-indolyl)propionamide]",20,25,–,–
"CCN(Cc1ccccc1)C(=O)[C@H](Cc1c[nH]c2ccccc12)NC(=O)N1CCC2(CCc3ccccc32)CC1 [Example 20, N-Benzyl-N-ethyl-2-(S)-((spiroindane-1,4'-piperidino)-carbonyl-amino)-3-(3-indolyl)propionamide]",120,25,–,–
"Cc1ccc(CNC(=O)[C@H](Cc2c[nH]c3ccccc23)NC(=O)N2CCC3(CCc4ccccc43)CC2)cc1 [Example 18, N-(4-Methylbenzyl)-2-(S)-((spiroindane-1,4'-piperidino)-carbonyl-amino)-3-(3-indolyl)propionamide]",100,200,–,–
"O=C(NCc1ccccc1)[C@H](Cc1c[nH]c2ccccc12)NC(=O)N1CCC2(CCc3ccccc32)CC1 [Example 15, N-Benzyl-2-(S)-((spiroindane-1,4'-piperidino)-carbonyl-amino)-3-(3-indolyl)propionamide]",100,35,–,–
"CC(=O)N1CC2(CCN(C(=O)N[C@@H](Cc3c[nH]c4ccccc34)C(=O)N(C)Cc3ccccc3)CC2)c2ccccc21 [Example 6, N-Benzyl-N-methyl-2-(S)-((1-acetylspiroindoline-3,4'-piperidino)-carbonyl-amino)-3-(3-indolyl)propionamide]",15,30,–,–
"O=C(Nc1ccccc1)[C@H](Cc1c[nH]c2ccccc12)NC(=O)N1CCC2(CCc3ccccc32)CC1 [Example 14, N-Phenyl-2-(S)-((spiroindane-1,4'-piperidino)-carbonyl-amino)-3-(3-indolyl)propionamide]",> 1000,650,–,–
"N-(1(S)-phenyl)ethyl-N-methyl-2-(S)-((1-methanesulfonyl-spiroindoline-3,4'- piperidino)-carbonyl-amino)-3-(3-indolyl)propionamide [Example 30]",10,70,–,–
"N-(1(S)-Phenylpropyl)-N-methyl-2(S)-((spiroindane-1,4'-piperidino)-carbonyl-amino)-3-(3-indolyl)propionamide [Example 23]",650,30,–,–

# The next lines start with results.
IC50 (human NK1R; [1]) [nM],IC50 (human NK2 receptor; [2]) [nM],Compound,IC50 (human NK1R) [nM],IC50 (human NK2 receptor) [nM]
575,200,"CN(Cc1ccccc1)C(=O)[C@@H](NC(=O)N1CCC2(C=Cc3ccccc32)CC1)c1ccccc1 [Example 37, N-Benzyl-N-methyl-2-(S)-((spiroindine-1,4'-piperidino)-carbonyl-amino)-2-phenylacetamide]",–,–
750,250,CN(Cc1ccccc1)C(=O)[C@@H](Cc1c[nH]c2ccccc12)NC(=O)N1CCC(c2ccccc2)CC1 [Example 33],–,–
8,85,"Cc1cccc(CN(C)C(=O)[C@H](Cc2c[nH]c3ccccc23)NC(=O)N2CCC3(CC2)CN(S(C)(=O)=O)c2ccccc23)c1 [Example 25, N-(3-Methylphenyl)methyl-N-methyl-2-(S)-((1-methanesulfonyl-spiroindoline-3,4'-piperidino)-carbonyl-amino)-3-(3-indolyl)propionamide]",–,–
600,130,"CN(Cc1ccccc1)C(=O)[C@@H](Cc1c[nH]c2ccccc12)NC(=O)N1CCC2(C=Cc3ccccc32)CC1 [Example 31, N-Benzyl-N-methyl-2-(R)-((spiro-1H-indene-1,4'-piperidino)-carbonyl-amino)-3-(3-indolyl)propionamide]",–,–
1000,28,"C[C@@H](NC(=O)[C@H](Cc1c[nH]c2ccccc12)NC(=O)N1CCC2(CCc3ccccc32)CC1)c1ccccc1 [Example 22, N-(1(R)-Phenylethyl)-2(S)-((spiroindane-1,4'-piperidino)-carbonyl-amino)-3-(3-indolyl)propionamide]",–,–

# — patent publication US5869489A, “Trypthophan ureas as neurokinnin antagonists” (Merck & Co., Inc., priority 1997, dated 1999)
